Here are results for 1 compound from patent US7282491B2, “Prokaryotic proteasomal proteases of Mycobacterium tuberculosis (MTB) as targets for antibiotic therapy” (Cornell Research Foundation, Inc., priority 2002, dated 2007).

Experiment [1] concerns Rv2115c and Rv2097c mutants. It is filed as cell-based, Mycobacterium tuberculosis.

Each structure is given as a SMILES string.

Consider `CC(C)C[C@H](NC(=O)[C@H](Cc1cccc2ccccc12)NC(=O)N1CCOCC1)B(O)O` [MLN-273, N-[4-morpholine]carbonyl-β-[1-naphthyl]-L-alanine-L-leucine boronic acid], for which the “augmentation of the toxicity of nitrite against the Rv2115c mutant” value with Rv2115c-mutant Mtb was “augmented the toxicity of nitrite against the Rv2115c mutant”. The “growth of Rv2115c and Rv2097c mutants under standard culture conditions” value in experiment [1] was “suppressed the growth of these mutants to same extent as for wt Mtb”.
